{"source": "patent US20250360071A1", "about": "“AGENT FOR INDUCING CILIUM” (MED R&D Co. Ltd, priority 2022, published 2025)", "key": {"HFDPCs": {"test_system": "HFDPCs", "test": "Co-culture system of Caco-2 and HFDPC, hair growth marker expression, Experimental Example 4", "type": "cell-based, human", "conditions": "added inside the Caco-2 insert; saponin mixture 5 μg/mL, finasteride 10 μM; after 2, 6 and 12 hours; vs control", "protocol": "An examination was carried out using a co-culture system of Caco-2 and an HFDPC which are human intestinal epithelial cell lines. FIG. 8 is a schematic view illustrating a co-culture system of the present Experimental Example. […] A permeable membrane having a pore size of […] was disposed on the bottom surface of the 96-well insert. […] In a case where the drug is permeable to the intestinal epithelial cells, with the addition of the drug into the inside of the transwell insert of the co-culture system, the drug permeates from the apex side (lumen side) to the basal side (vascular side) of the Caco-2 cells. Furthermore, the drug that permeated acts on the HFDPCs seeded on the receiver plate. A mixture in which each saponin was mixed at a ratio shown in Table 1 below (which may hereinafter be referred to as a “saponin mixture”) was used as a sample for the examination. The saponin mixture was added to the inside of the transwell insert of the co-culture system so that a concentration thereof was 5 μg/mL. Subsequently, the expression of the hair growth marker in the HFDPCs seeded on the receiver plate was measured by quantitative real-time PCR after 2 hours, 6 hours, and 12 hours. As the hair growth markers, a CTNNB1 gene (β-catenin), an ALPL gene (alkaline phosphatase), and an FGF1 gene (fiblobrast growth factor 1) were measured. […]"}, "C3H male mouse": {"test_system": "C3H male mouse", "test": "Hair growth promoting effect in vivo, application to depilated dorsal skin, Experimental Example 5", "protocol": "The oleanane-type triterpenoid was applied to the dorsal skin of a mouse and the hair growth promoting effect was examined. Maslinic acid was used as the oleanane-type triterpenoid. In addition, for comparison, a group in which minoxidil was used and a control group in which only a solvent was applied were prepared.\nFIG. 12 is a schematic view showing an experimental schedule. After acclimatization of a C3H male mouse, the dorsal skin was depilated with a shaver and a depilatory cream. Thereafter, 150 μL of 1% minoxidil (n=8), 1% maslinic acid (n=6), or a solvent (n=8) was applied to the mouse in each group every day for 20 days, and the mouse was observed over time.\nIt is known that the hair cycle of a mouse has three stages of an anagen, a catagen, and a telogen. During the anagen (the 1st day to the 16th day), the hair follicle grows into the deep subcutaneous part. In the catagen (the 17th day to the 19th day), the hair follicle stops growing and regresses to the upper subcutaneous part. In the telogen (the 20th day to the 29th day), the hair shaft is in a state where it can be lost at any time. It is known that the color of the dorsal skin of a mouse changes to pink, gray, and black due to the hair cycle. FIG. 13 is a view showing a change in the color of the dorsal skin of a mouse due to the hair cycle."}, "dorsal skin [1]": {"test_system": "dorsal skin", "test": "Transcriptome analysis and extended network analysis of dorsal skin, Experimental Examples 6 and 8", "type": "in vivo, mouse", "conditions": "20th day, 1% applied daily; maslinic acid group vs tieghemelin group", "protocol": "A mouse in each group of Experimental Example 5 and a mouse in the group which had been subjected to the same treatment as in Experimental Example 5 using 1% tieghemelin (n=6) were euthanized on the 20th day, and the dorsal skin was collected and subjected to transcriptome analysis.\n(§1) Extended network analysis was performed based on the results of the transcriptome analysis in Experimental Example 6. FIGS. 20 to 22 are views showing the results of the extended network analysis. FIG. 20 is an analysis result obtained from a dataset of the minoxidil treatment group, FIG. 21 is an analysis result obtained from a dataset of the maslinic acid treatment group, and FIG. 22 is an analysis result obtained from a dataset of the tieghemelin treatment group. In FIGS. 20 to 22, a white circle indicates a gene with increased expression, and a black circle indicates a gene with decreased expression. In addition, the size of the circle indicates the magnitude of a change in expression level."}, "dorsal skin [2]": {"test_system": "dorsal skin", "test": "Gene ontology (GO), GO enrichment and tissue-specific expression analysis of transcriptome, Experimental Example 7", "type": "in vivo, mouse", "conditions": "20th day", "protocol": "Gene ontology (GO) analysis and GO enrichment analysis were performed based on the results of the transcriptome analysis in Experimental Example 6.\nSubsequently, term enrichment analysis of the genes with expression increased specifically with respect to the skin tissue was performed. Using tissue-specific expression analysis (TSEA), genes related to the skin tissue were filtered, and functions that were specifically enriched in the maslinic acid treatment group and the tieghemelin treatment group and were not enriched in the minoxidil treatment group were selected."}, "Iqcb1": {"test_system": "Iqcb1", "test": "Iqcb1 expression from transcriptome / extended network analysis, Experimental Example 8", "type": "in vivo, mouse", "conditions": "dorsal skin, 20th day, 1% applied daily", "protocol": "as §1\nDDX58 is an innate immune receptor that senses viral nucleic acids in the cytoplasm and activates a downstream signal transduction cascade leading to the production of type I interferons or inflammatory cytokines. IQCB1 is a protein known to be involved in formation of cilium."}, "hair cycle-related genes": {"test_system": "hair cycle-related genes", "test": "Fluctuation in expression of hair cycle-related genes from transcriptome, Experimental Example 9", "type": "in vivo, mouse", "conditions": "dorsal skin, 20th day", "source_text": "A fluctuation in expression of the hair cycle-related genes was examined, based on the results of the transcriptome analysis in Experimental Example 6."}, "dorsal skin [3]": {"test_system": "dorsal skin", "test": "Fluorescence immunostaining of dorsal skin tissue sections, Experimental Example 10", "type": "in vivo, mouse", "conditions": "20th day", "source_text": "A mouse in each group of Experimental Examples 5 and 6 was euthanized on the 20th day, the dorsal skin was collected, and the tissue section was subjected to immunostaining.\nFIG. 23 is a photomicrograph showing the results of detecting the expressions of β-catenin and K14 by fluorescence immunostaining. In addition, the nuclei were stained with 4′,6-diamidino-2-phenylindole (DAPI). The β-catenin is a hair growth promoting marker and is also a marker for the start of the anagen. K14 is an epidermal marker and is known to increase with the differentiation of hair follicle stem cells.\nFIG. 24 is a photomicrograph showing the results of detecting the expression of VEGF by fluorescence immunostaining. In addition, the nuclei were stained with DAPI. VEGF is known to improve the vascularization of hair follicles, increase the size of hair follicles and hair, and promote the growth and circulation of hair follicles."}, "[4]": {"conditions": "fluorescence immunostaining, dorsal skin"}}}
{"smiles": "CC(C)(C)NC(=O)[C@H]1CC[C@H]2[C@@H]3CC[C@H]4NC(=O)C=C[C@]4(C)[C@H]3CC[C@]12C", "note": "[finasteride]", "values": [{"measurement": "expression of the hair growth marker (CTNNB1, ALPL, FGF1) in HFDPCs", "setting": "HFDPCs", "result": "induced the expression of the hair growth marker regardless of the treatment time"}]}
{"smiles": "CC1(C)CC[C@]2(C(=O)O)CC[C@]3(C)C(=CC[C@@H]4[C@@]5(C)C[C@@H](O)[C@H](O)C(C)(C)[C@@H]5CC[C@]43C)[C@@H]2C1", "note": "[maslinic acid]", "values": [{"measurement": "black area indicating the late anagen, vs control group", "setting": "C3H male mouse; 10th day, 1% applied daily", "result": "larger black area"}, {"measurement": "speed of a transition from the telogen to the anagen (order)", "setting": "C3H male mouse; 10th day, 1% applied daily", "result": "Minoxidil≈Maslinic acid>Control group"}, {"measurement": "hair cycle stage observed on the 20th day", "setting": "C3H male mouse; 20th day, 1% applied daily", "result": "transitioned to the next telogen"}, {"measurement": "speed of transition to the telogen after the anagen and the catagen (order)", "setting": "C3H male mouse; 20th day, 1% applied daily", "result": "Minoxidil=Maslinic acid>Control group"}, {"measurement": "hair cycle stage observed on the 10th day", "setting": "C3H male mouse; 150 μL of 1% applied daily, control transitioned from telogen to anagen on the 10th day", "result": "transition to the late anagen"}, {"measurement": "influence on the body weight of the mouse", "setting": "C3H male mouse; 150 μL of 1% applied to dorsal skin every day for 20 days", "result": "No influence on the body weight"}, {"measurement": "pattern of differentially expressed genes in the dorsal skins", "setting": "dorsal skin [1]", "result": "showed the same pattern"}, {"measurement": "number of genes with decreased expression common among the minoxidil, maslinic acid and tieghemelin treatment groups", "setting": "dorsal skin [2]", "result": 316}, {"measurement": "number of genes with decreased expression common between the minoxidil and maslinic acid treatment groups", "setting": "dorsal skin [2]", "result": "Seventy-two"}, {"measurement": "number of genes with increased expression common among the minoxidil, maslinic acid and tieghemelin treatment groups", "setting": "dorsal skin [2]", "result": 342}, {"measurement": "number of genes with increased expression common between the minoxidil and maslinic acid treatment groups", "setting": "dorsal skin [2]", "result": "Eighty-one"}, {"measurement": "functions specifically enriched among skin-tissue genes with increased expression (TSEA)", "setting": "dorsal skin [2]; functions not enriched in the minoxidil treatment group", "result": "skin barriers, keratinocytes, proliferation of epithelial cells, pigmentation, and interactions between cytokines and cytokine receptors"}, {"measurement": "Iqcb1 expression", "setting": "Iqcb1", "result": "upregulated"}, {"measurement": "expression level of Iqcb1 compared with the minoxidil treatment group", "setting": "Iqcb1", "result": "increased more"}, {"measurement": "expression level of BMP4", "setting": "hair cycle-related genes", "result": "decreased"}, {"measurement": "expression of NF-κB", "setting": "hair cycle-related genes", "result": "decreased"}, {"measurement": "sizes of the hair follicle and the hair shaft", "setting": "dorsal skin [3]; dorsal skin section", "result": "increased"}, {"measurement": "expression of K14", "setting": "dorsal skin [3]; [4]", "result": "increase in the expression"}, {"measurement": "expression of VEGF", "setting": "dorsal skin [3]; [4]", "result": "increased"}, {"measurement": "expression of β-catenin", "setting": "dorsal skin [3]; [4]", "result": "increase in the expression"}]}
